Experimental data: ChEMBL document CHEMBL4715822, “Structure-based lead optimization to improve antiviral potency and ADMET properties of phenyl-1H-pyrrole-carboxamide entry inhibitors targeted to HIV-1 gp120” (Eur J Med Chem, 2018)

Test system: Human immunodeficiency virus 1
Test: Antiviral activity against HIV-1 HXB-2 infected in human TZM-bl cells assessed as reduction in viral infection pretreated for 30 mins before viral infection and measured after 3 days by luciferase based single cycle infection assay
Type: functional, organism-based
Details: Human immunodeficiency virus 1, M:B_HXB2R

Row | SMILES | IC50 [µM]
1 | Cc1c(F)cc(-c2ccc(C(=O)N[C@@H](CN)c3ncc(CO)s3)[nH]2)cc1F | 0.47
2 | Cc1c(F)cc(-c2ccc(C(=O)N[C@@H](CN)c3nc(CO)cs3)[nH]2)cc1F | 0.18
3 | Cc1c(F)cc(-c2ccc(C(=O)N[C@H](CN)c3ncc(CO)s3)[nH]2)cc1F | 0.2
4 | CNC[C@H](NC(=O)c1ccc(-c2cc(F)c(Cl)c(F)c2)[nH]1)c1nc(CO)cs1 | 0.23
5 | CC(C)(O)c1csc([C@H](CN)NC(=O)c2ccc(-c3cc(F)c(Cl)c(F)c3)[nH]2)n1 | 0.23
6 | NC[C@@H](NC(=O)c1ccc(-c2ccc(C(F)(F)F)c(F)c2)[nH]1)c1nc(CO)c(CO)s1 | 1.8
7 | COC(C)(C)c1csc([C@@H](CN)NC(=O)c2ccc(-c3cc(F)c(Cl)c(F)c3)[nH]2)n1 | 9.3
8 | CNC[C@@H](NC(=O)c1ccc(-c2ccc(C(F)(F)F)cc2)[nH]1)c1nc(CO)cs1 | 0.62
9 | Cc1c(F)cc(-c2ccc(C(=O)N[C@H](CN)c3nc(CO)cs3)[nH]2)cc1F | 0.54
10 | CNC[C@@H](NC(=O)c1ccc(-c2cc(F)c(Cl)c(F)c2)[nH]1)c1nc(CO)cs1 | 0.25
11 | CC(C)(O)c1csc([C@@H](CN)NC(=O)c2ccc(-c3cc(F)c(Cl)c(F)c3)[nH]2)n1 | 0.56
12 | NC[C@H](NC(=O)c1ccc(-c2ccc(C(F)(F)F)cc2)[nH]1)c1nc(CO)cs1 | 0.47
13 | NC[C@H](NC(=O)c1ccc(-c2cc(F)c(Cl)c(F)c2)[nH]1)c1nc(CO)c(CO)s1 | 2.3
14 | NC[C@H](NC(=O)c1ccc(-c2ccc(C(F)(F)F)c(F)c2)[nH]1)c1nc(CO)c(CO)s1 | 3.1
15 | NC[C@@H](NC(=O)c1ccc(-c2ccc(C(F)(F)F)cc2)[nH]1)c1nc(CO)cs1 | 0.9

Test system: not listed separately
Test: Antiviral activity against HIV-1 3B infected in human MT2 cells assessed as reduction in viral infection pretreated for 30 mins before viral infection and measured after 4 days by ELISA based multi cycle infection assay
Type: functional, cell-based
Details: Human immunodeficiency virus 1, M:B_HXB2R

Row | SMILES | IC50 [µM]
16 | Cc1c(F)cc(-c2ccc(C(=O)N[C@@H](CN)c3ncc(CO)s3)[nH]2)cc1F | 0.2
17 | Cc1c(F)cc(-c2ccc(C(=O)N[C@@H](CN)c3nc(CO)cs3)[nH]2)cc1F | 0.18
18 | Cc1c(F)cc(-c2ccc(C(=O)N[C@H](CN)c3ncc(CO)s3)[nH]2)cc1F | 0.2
19 | CNC[C@H](NC(=O)c1ccc(-c2cc(F)c(Cl)c(F)c2)[nH]1)c1nc(CO)cs1 | 0.18
20 | CC(C)(O)c1csc([C@H](CN)NC(=O)c2ccc(-c3cc(F)c(Cl)c(F)c3)[nH]2)n1 | 0.25
21 | NC[C@@H](NC(=O)c1ccc(-c2ccc(C(F)(F)F)c(F)c2)[nH]1)c1nc(CO)c(CO)s1 | 2
22 | COC(C)(C)c1csc([C@@H](CN)NC(=O)c2ccc(-c3cc(F)c(Cl)c(F)c3)[nH]2)n1 | 6.1
23 | CNC[C@@H](NC(=O)c1ccc(-c2ccc(C(F)(F)F)cc2)[nH]1)c1nc(CO)cs1 | 0.6
24 | Cc1c(F)cc(-c2ccc(C(=O)N[C@H](CN)c3nc(CO)cs3)[nH]2)cc1F | 0.6
25 | CNC[C@@H](NC(=O)c1ccc(-c2cc(F)c(Cl)c(F)c2)[nH]1)c1nc(CO)cs1 | 0.4
26 | CC(C)(O)c1csc([C@@H](CN)NC(=O)c2ccc(-c3cc(F)c(Cl)c(F)c3)[nH]2)n1 | 0.8
27 | NC[C@H](NC(=O)c1ccc(-c2ccc(C(F)(F)F)cc2)[nH]1)c1nc(CO)cs1 | 0.3
28 | NC[C@H](NC(=O)c1ccc(-c2cc(F)c(Cl)c(F)c2)[nH]1)c1nc(CO)c(CO)s1 | 3
29 | NC[C@H](NC(=O)c1ccc(-c2ccc(C(F)(F)F)c(F)c2)[nH]1)c1nc(CO)c(CO)s1 | 3.6
30 | NC[C@@H](NC(=O)c1ccc(-c2ccc(C(F)(F)F)cc2)[nH]1)c1nc(CO)cs1 | 1.75

Test system: TZM
Test: Cytotoxicity against human TZM-bl cells assessed as reduction in cell viability incubated for 3 days by XTT assay
Type: cell-based
Details: tzm, 72 h, time 3 day

Row | SMILES | CC50 [µM]
31 | Cc1c(F)cc(-c2ccc(C(=O)N[C@@H](CN)c3ncc(CO)s3)[nH]2)cc1F | 33.2
32 | Cc1c(F)cc(-c2ccc(C(=O)N[C@@H](CN)c3nc(CO)cs3)[nH]2)cc1F | 18.5
33 | Cc1c(F)cc(-c2ccc(C(=O)N[C@H](CN)c3ncc(CO)s3)[nH]2)cc1F | 32.9
34 | CNC[C@H](NC(=O)c1ccc(-c2cc(F)c(Cl)c(F)c2)[nH]1)c1nc(CO)cs1 | 18
35 | CC(C)(O)c1csc([C@H](CN)NC(=O)c2ccc(-c3cc(F)c(Cl)c(F)c3)[nH]2)n1 | 28.4
36 | NC[C@@H](NC(=O)c1ccc(-c2ccc(C(F)(F)F)c(F)c2)[nH]1)c1nc(CO)c(CO)s1 | > 65.4
37 | COC(C)(C)c1csc([C@@H](CN)NC(=O)c2ccc(-c3cc(F)c(Cl)c(F)c3)[nH]2)n1 | 39.6
38 | CNC[C@@H](NC(=O)c1ccc(-c2ccc(C(F)(F)F)cc2)[nH]1)c1nc(CO)cs1 | 23.5
39 | Cc1c(F)cc(-c2ccc(C(=O)N[C@H](CN)c3nc(CO)cs3)[nH]2)cc1F | 20.6
40 | CNC[C@@H](NC(=O)c1ccc(-c2cc(F)c(Cl)c(F)c2)[nH]1)c1nc(CO)cs1 | 23.8
41 | CC(C)(O)c1csc([C@@H](CN)NC(=O)c2ccc(-c3cc(F)c(Cl)c(F)c3)[nH]2)n1 | 27.2
42 | NC[C@H](NC(=O)c1ccc(-c2ccc(C(F)(F)F)cc2)[nH]1)c1nc(CO)cs1 | 24.4
43 | NC[C@H](NC(=O)c1ccc(-c2cc(F)c(Cl)c(F)c2)[nH]1)c1nc(CO)c(CO)s1 | > 70
44 | NC[C@H](NC(=O)c1ccc(-c2ccc(C(F)(F)F)c(F)c2)[nH]1)c1nc(CO)c(CO)s1 | > 65
45 | NC[C@@H](NC(=O)c1ccc(-c2ccc(C(F)(F)F)cc2)[nH]1)c1nc(CO)cs1 | 27.6

Test system: MT2
Test: Cytotoxicity against human MT2 cells assessed as reduction in cell viability incubated for 4 days by XTT assay
Type: cell-based
Details: mt2, 96 h, time 4 day

Row | SMILES | CC50 [µM]
46 | Cc1c(F)cc(-c2ccc(C(=O)N[C@@H](CN)c3ncc(CO)s3)[nH]2)cc1F | 27
47 | Cc1c(F)cc(-c2ccc(C(=O)N[C@@H](CN)c3nc(CO)cs3)[nH]2)cc1F | 25.5
48 | Cc1c(F)cc(-c2ccc(C(=O)N[C@H](CN)c3ncc(CO)s3)[nH]2)cc1F | 26.8
49 | CNC[C@H](NC(=O)c1ccc(-c2cc(F)c(Cl)c(F)c2)[nH]1)c1nc(CO)cs1 | 18.8
50 | CC(C)(O)c1csc([C@H](CN)NC(=O)c2ccc(-c3cc(F)c(Cl)c(F)c3)[nH]2)n1 | 16.6
51 | NC[C@@H](NC(=O)c1ccc(-c2ccc(C(F)(F)F)c(F)c2)[nH]1)c1nc(CO)c(CO)s1 | 72.4
52 | COC(C)(C)c1csc([C@@H](CN)NC(=O)c2ccc(-c3cc(F)c(Cl)c(F)c3)[nH]2)n1 | 29.5
53 | CNC[C@@H](NC(=O)c1ccc(-c2ccc(C(F)(F)F)cc2)[nH]1)c1nc(CO)cs1 | 19.8
54 | Cc1c(F)cc(-c2ccc(C(=O)N[C@H](CN)c3nc(CO)cs3)[nH]2)cc1F | 15.9
55 | CNC[C@@H](NC(=O)c1ccc(-c2cc(F)c(Cl)c(F)c2)[nH]1)c1nc(CO)cs1 | 24
56 | CC(C)(O)c1csc([C@@H](CN)NC(=O)c2ccc(-c3cc(F)c(Cl)c(F)c3)[nH]2)n1 | 18
57 | NC[C@H](NC(=O)c1ccc(-c2ccc(C(F)(F)F)cc2)[nH]1)c1nc(CO)cs1 | 16.3
58 | NC[C@H](NC(=O)c1ccc(-c2cc(F)c(Cl)c(F)c2)[nH]1)c1nc(CO)c(CO)s1 | 96.7
59 | NC[C@H](NC(=O)c1ccc(-c2ccc(C(F)(F)F)c(F)c2)[nH]1)c1nc(CO)c(CO)s1 | 92.3
60 | NC[C@@H](NC(=O)c1ccc(-c2ccc(C(F)(F)F)cc2)[nH]1)c1nc(CO)cs1 | 15.1
